The source made the active and inactive calls. The rule behind the calls is not given here.

The series has as its system CCRIS mutagenicity, Ames/micronucleus/aberration tests. Kind of series: CCRIS mutagenicity studies.

As to `CCOc1ccc(NC(C)=O)cc1N`, the mutagenic call (Test System: AMES SALMONELLA TYPHIMURIUM, Strain/Indicator: TA98, Metabolic Activation: HAMSTER, LIVER, S-9, AROCLOR 1254, Method: STANDARD PLATE) is “active; positive”; the mutagenic call (Test System: AMES SALMONELLA TYPHIMURIUM, Strain/Indicator: TA98, Metabolic Activation: HAMSTER, LIVER, S-9, Method: STANDARD PLATE) was “active; positive”; the mutagenic call (Test System: AMES SALMONELLA TYPHIMURIUM, Strain/Indicator: TA98, Metabolic Activation: MOUSE, LIVER, S-9, AROCLOR 1254, Method: STANDARD PLATE) was “active; positive”; the mutagenic call (Test System: AMES SALMONELLA TYPHIMURIUM, Strain/Indicator: TA98, Metabolic Activation: MOUSE, LIVER, S-9, Method: STANDARD PLATE) was “active; positive”; the mutagenic call (Test System: AMES SALMONELLA TYPHIMURIUM, Strain/Indicator: TA98, Metabolic Activation: RAT, LIVER, S-9, AROCLOR 1254, Method: STANDARD PLATE) is “active; positive”; the mutagenic call (Test System: AMES SALMONELLA TYPHIMURIUM, Strain/Indicator: TA98, Metabolic Activation: RAT, LIVER, S-9, Method: STANDARD PLATE) was “active; positive”. Also, the mutagenic call was “active; positive” (Test System: AMES SALMONELLA TYPHIMURIUM, Strain/Indicator: TA100, Metabolic Activation: HAMSTER, LIVER, S-9, AROCLOR 1254, Method: STANDARD PLATE); “inactive; negative” (Test System: AMES SALMONELLA TYPHIMURIUM, Strain/Indicator: TA100, Metabolic Activation: MOUSE, LIVER, S-9, AROCLOR 1254, Method: STANDARD PLATE); “inactive; negative” (Test System: AMES SALMONELLA TYPHIMURIUM, Strain/Indicator: TA100, Metabolic Activation: MOUSE, LIVER, S-9, Method: STANDARD PLATE); “inactive; negative” (Test System: AMES SALMONELLA TYPHIMURIUM, Strain/Indicator: TA100, Metabolic Activation: NONE, Method: STANDARD PLATE); “inactive; negative” (Test System: AMES SALMONELLA TYPHIMURIUM, Strain/Indicator: TA100, Metabolic Activation: RAT, LIVER, S-9, Method: STANDARD PLATE); “inactive; negative” (Test System: AMES SALMONELLA TYPHIMURIUM, Strain/Indicator: TA1535, Metabolic Activation: HAMSTER, LIVER, S-9, AROCLOR 1254, Method: STANDARD PLATE). Besides, the mutagenic call (Test System: AMES SALMONELLA TYPHIMURIUM, Strain/Indicator: TA1535, Metabolic Activation: HAMSTER, LIVER, S-9, Method: STANDARD PLATE) was “inactive; negative”; the mutagenic call (Test System: AMES SALMONELLA TYPHIMURIUM, Strain/Indicator: TA1535, Metabolic Activation: MOUSE, LIVER, S-9, AROCLOR 1254, Method: STANDARD PLATE) was “inactive; negative”; the mutagenic call (Test System: AMES SALMONELLA TYPHIMURIUM, Strain/Indicator: TA1535, Metabolic Activation: MOUSE, LIVER, S-9, Method: STANDARD PLATE) was “inactive; negative”; the mutagenic call (Test System: AMES SALMONELLA TYPHIMURIUM, Strain/Indicator: TA1535, Metabolic Activation: NONE, Method: STANDARD PLATE) was “inactive; negative”; the mutagenic call (Test System: AMES SALMONELLA TYPHIMURIUM, Strain/Indicator: TA1535, Metabolic Activation: RAT, LIVER, S-9, AROCLOR 1254, Method: STANDARD PLATE) is “inactive; negative”; the mutagenic call (Test System: AMES SALMONELLA TYPHIMURIUM, Strain/Indicator: TA1535, Metabolic Activation: RAT, LIVER, S-9, Method: STANDARD PLATE) was “inactive; negative”. For the same molecule, the mutagenic call is “active; positive” (Test System: AMES SALMONELLA TYPHIMURIUM, Strain/Indicator: TA1537, Metabolic Activation: HAMSTER, LIVER, S-9, AROCLOR 1254, Method: STANDARD PLATE); “active; positive” (Test System: AMES SALMONELLA TYPHIMURIUM, Strain/Indicator: TA1537, Metabolic Activation: HAMSTER, LIVER, S-9, Method: STANDARD PLATE); “active; positive” (Test System: AMES SALMONELLA TYPHIMURIUM, Strain/Indicator: TA1537, Metabolic Activation: MOUSE, LIVER, S-9, AROCLOR 1254, Method: STANDARD PLATE); “active; positive” (Test System: AMES SALMONELLA TYPHIMURIUM, Strain/Indicator: TA1537, Metabolic Activation: RAT, LIVER, S-9, AROCLOR 1254, Method: STANDARD PLATE); “active; positive” (Test System: AMES SALMONELLA TYPHIMURIUM, Strain/Indicator: TA1538, Metabolic Activation: HAMSTER, LIVER, S-9, AROCLOR 1254, Method: STANDARD PLATE); “active; positive” (Test System: AMES SALMONELLA TYPHIMURIUM, Strain/Indicator: TA1538, Metabolic Activation: HAMSTER, LIVER, S-9, Method: STANDARD PLATE). For the same molecule, the mutagenic call runs as follows: (Test System: AMES SALMONELLA TYPHIMURIUM, Strain/Indicator: TA1538, Metabolic Activation: MOUSE, LIVER, S-9, AROCLOR 1254, Method: STANDARD PLATE) “active; positive”; (Test System: AMES SALMONELLA TYPHIMURIUM, Strain/Indicator: TA1538, Metabolic Activation: NONE, Method: STANDARD PLATE) “inactive; negative”; (Test System: AMES SALMONELLA TYPHIMURIUM, Strain/Indicator: TA1538, Metabolic Activation: RAT, LIVER, S-9, AROCLOR 1254, Method: STANDARD PLATE) “active; positive”; (Test System: AMES SALMONELLA TYPHIMURIUM, Strain/Indicator: TA1538, Metabolic Activation: RAT, LIVER, S-9, Method: STANDARD PLATE) “active; positive”; (Test System: E. COLI, Strain/Indicator: WP2 UVRA, Metabolic Activation: HAMSTER, LIVER, S-9, AROCLOR 1254, Method: STANDARD PLATE) “inactive; negative”; (Test System: E. COLI, Strain/Indicator: WP2 UVRA, Metabolic Activation: HAMSTER, LIVER, S-9, Method: STANDARD PLATE) “inactive; negative”. The mutagenic call runs as follows: (Test System: E. COLI, Strain/Indicator: WP2 UVRA, Metabolic Activation: MOUSE, LIVER, S-9, AROCLOR 1254, Method: STANDARD PLATE) “inactive; negative”; (Test System: E. COLI, Strain/Indicator: WP2 UVRA, Metabolic Activation: MOUSE, LIVER, S-9, Method: STANDARD PLATE) “inactive; negative”; (Test System: E. COLI, Strain/Indicator: WP2 UVRA, Metabolic Activation: NONE, Method: STANDARD PLATE) “inactive; negative”; (Test System: E. COLI, Strain/Indicator: WP2 UVRA, Metabolic Activation: RAT, LIVER, S-9, Method: STANDARD PLATE) “inactive; negative”.

In the case of `c1ccc(OP(Oc2ccccc2)Oc2ccccc2)cc1`, the mutagenic call runs as follows: (Test System: AMES SALMONELLA TYPHIMURIUM, Strain/Indicator: TA98, Metabolic Activation: HAMSTER, LIVER, S-9, AROCLOR 1254 (10%), Method: PREINCUBATION) “inactive; negative”; (Test System: AMES SALMONELLA TYPHIMURIUM, Strain/Indicator: TA98, Metabolic Activation: NONE, Method: PREINCUBATION) “inactive; negative”; (Test System: AMES SALMONELLA TYPHIMURIUM, Strain/Indicator: TA98, Metabolic Activation: RAT, LIVER, S-9, AROCLOR 1254 (10%), Method: PREINCUBATION) “inactive; negative”; (Test System: AMES SALMONELLA TYPHIMURIUM, Strain/Indicator: TA100, Metabolic Activation: HAMSTER, LIVER, S-9, AROCLOR 1254 (10%), Method: PREINCUBATION) “inactive; negative”; (Test System: AMES SALMONELLA TYPHIMURIUM, Strain/Indicator: TA100, Metabolic Activation: NONE, Method: PREINCUBATION) “inactive; negative”; (Test System: AMES SALMONELLA TYPHIMURIUM, Strain/Indicator: TA100, Metabolic Activation: RAT, LIVER, S-9, AROCLOR 1254 (10%), Method: PREINCUBATION) “inactive; negative”. Besides, the mutagenic call runs as follows: (Test System: AMES SALMONELLA TYPHIMURIUM, Strain/Indicator: TA1535, Metabolic Activation: HAMSTER, LIVER, S-9, AROCLOR 1254 (10%), Method: PREINCUBATION) “inactive; negative”; (Test System: AMES SALMONELLA TYPHIMURIUM, Strain/Indicator: TA1535, Metabolic Activation: NONE, Method: PREINCUBATION) “inactive; negative”; (Test System: AMES SALMONELLA TYPHIMURIUM, Strain/Indicator: TA1535, Metabolic Activation: RAT, LIVER, S-9, AROCLOR 1254 (10%), Method: PREINCUBATION) “inactive; negative”; (Test System: AMES SALMONELLA TYPHIMURIUM, Strain/Indicator: TA1537, Metabolic Activation: HAMSTER, LIVER, S-9, AROCLOR 1254 (10%), Method: PREINCUBATION) “inactive; negative”; (Test System: AMES SALMONELLA TYPHIMURIUM, Strain/Indicator: TA1537, Metabolic Activation: NONE, Method: PREINCUBATION) “inactive; negative”; (Test System: AMES SALMONELLA TYPHIMURIUM, Strain/Indicator: TA1537, Metabolic Activation: RAT, LIVER, S-9, AROCLOR 1254 (10%), Method: PREINCUBATION) “inactive; negative”.

On to `O=C1C=C2c3cc4ccccc4cc3-c3cccc(c32)C1=O`, for which the mutagenic call (Test System: AMES SALMONELLA TYPHIMURIUM, Strain/Indicator: TA100, Metabolic Activation: RAT, LIVER, S-9, AROCLOR 1254, Method: STANDARD PLATE) is “active; positive”.

With `CC(C)[C@@](O)(C(=O)OC[C@@H]1CCN2CCC[C@H]12)[C@@H](C)O`, the mutagenic call (Test System: AMES SALMONELLA TYPHIMURIUM, Strain/Indicator: TA100, Metabolic Activation: HAMSTER, LIVER, S-9, PCB, Method: PREINCUBATION) is “inactive; negative” and the mutagenic call (Test System: AMES SALMONELLA TYPHIMURIUM, Strain/Indicator: TA100, Metabolic Activation: RAT, LIVER, S-9, PCB, Method: PREINCUBATION) was “inactive; negative”.
